Results published in paper PMC6035882 (Biochimie, 2018).
pIC50: −log10 of the molar value. Read-outs that look alike come from different tables or passages of the source. One block for each compound: values may come before it.

Legend:
Experiment in all cases: 3H-2-deoxyglucose uptake inhibition in L929 cells
Assay type in all cases: cell-based
[1] = molecular target: T1, GLUT1 (Mus musculus, UniProt P17809)
T1 sequence (P17809 1-492): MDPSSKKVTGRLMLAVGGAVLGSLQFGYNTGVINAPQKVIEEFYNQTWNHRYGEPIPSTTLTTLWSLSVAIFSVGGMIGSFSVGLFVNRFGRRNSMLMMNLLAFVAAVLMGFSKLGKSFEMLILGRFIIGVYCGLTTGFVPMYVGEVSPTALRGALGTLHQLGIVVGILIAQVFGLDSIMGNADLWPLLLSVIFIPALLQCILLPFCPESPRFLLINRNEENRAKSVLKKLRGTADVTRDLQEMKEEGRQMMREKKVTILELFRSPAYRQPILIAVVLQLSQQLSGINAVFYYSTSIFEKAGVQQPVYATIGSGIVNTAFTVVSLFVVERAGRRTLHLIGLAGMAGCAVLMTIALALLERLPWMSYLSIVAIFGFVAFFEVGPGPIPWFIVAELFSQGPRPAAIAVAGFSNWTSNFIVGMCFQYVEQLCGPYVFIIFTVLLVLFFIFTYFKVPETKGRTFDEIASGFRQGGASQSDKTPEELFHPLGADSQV

[2] = molecular target: T1, GLUT1; remark: listed apart in the source
[3] = molecular target: T1, GLUT1; remark: listed apart in the source

Compound: Cc1c(NC(=O)c2cc(C(N)=O)nc3cc(F)ccc23)c(C(F)(F)F)nn1Cc1ccc(C#N)cc1 [BAY-876]
pIC50 [1]: 7.70

pIC50 [2]: 5.07
Compound: O=C(Oc1cccc(F)c1OC(=O)c1cccc(O)c1)c1cccc(O)c1 [WZB-117]

Compound: O=c1c(O)c(-c2ccc(O)c(O)c2)oc2cc(O)cc(O)c12 [quercetin, 3,3′,4′5,7-pentahydroxyflavone]
pIC50 [3]: 5.07
